Measured values from publication PMC8230281, “Improving the Pharmacological Properties of Ciclopirox for Its Use in Congenital Erythropoietic Porphyria” (Journal of Personalized Medicine, 2021).

Assays:
[1] = Serum CPX pharmacokinetics in mice after single IV or oral dose, quantified by NMR; assay type: in vivo
Protocol: (§1) The compound ciclopirox (CPX, 6-cyclohexyl-1-hydroxy-4-methyl-2(1H)-pyridinone) was purchased from Santa Cruz Biotechnology (sc-204688), and phosphorylated ciclopirox (CPXpom, O-phosphoryl-methylen-6-cyclohexyl-1-hydroxy-4-metyl-2(1H)-Pyridinone) was synthetized by Charnwood Molecular Ltd. PD of CPX was studied in HEK CRISPR Cas UROIIIS-C73R and UROIIIS-P248Q cell lines. Briefly, 60 µM dose of CPX and phosphorylated CPX was administrated for 30 min and 1, 2, and 4 h of exposition. Then, the cells were counted and harvested. Samples were treated by the same protocol for the porphyrin extraction. Mouse experiments. For the PK experiments and for each bolus administration method 10 WT ICR (CD-1®) outbred mice (Envigo) were used. Serum was collected after the administration at 1, 2, 4, 6 (7), 12, and 24 h. At 48 (36) h, the mice were sacrificed. Triplicates were collected for each data point. […] In the PD experiments, the concentration of porphyrins was measured from circulating blood. […]
NMR data were collected at on an 800-MHz Bruker Avance III spectrometer equipped with a cryoprobe and on a 600-MHz Bruker Avance III US2 spectrometer. […] Metabolic quantification was carried out at peaks’ integral against the added internal reference compound. […]
Non-compartmental serum and urine pharmacokinetic parameters for CPXpom and CPX were determined using SimBiology module in MATLAB. […]

[2] = GI toxicity in WT mice after administration of CPX or CPXpom; assay type: in vivo; details: for macroscopic inflammation of the gut: mice, Figure 1; for GI toxicity: 100 mg/kg
[3] = system: HEK CRISPR Cas UROIIIS-C73R cell line; assay: URO I levels in HEK CRISPR/Cas9 cellular model of CEP (UROIIIS-C73R), HPLC; assay type: cell-based; details: UROIIIS^C73R HEK cells; 60 µM; 30 min to 4 h
Protocol: as §1, with “used.” for “used. Serum was collected after the administration at 1, 2, 4, 6 (7), 12, and 24 h. At 48 (36) h, the mice were sacrificed. Triplicates were collected for each data point.”
(§2) Murine blood samples were obtained from the submandibular vein and collected in ethylenediaminetetraacetic acid tubes; samples were aliquoted and stored in a freezer at −80 °C. […] The samples were then analyzed by HPLC.
(§3) Porphyrins from cell lines were separated by HPLC analysis on a ODS Hypersil C18 column (5 µm, 3 mm × 200 mm; Thermo Scientific, Waltham, MA, US) in a HPLC chromatograph (Shimadzu, Long Beach, CA, US). […] All analyses were performed at 20 °C, and porphyrins were detected by fluorescence with an excitation wavelength 405 nm and emission wavelength 610 nm. […]

[4] = system: HEK CRISPR Cas UROIIIS-P248Q cell line; assay: URO I levels in HEK CRISPR/Cas9 cellular model of CEP (UROIIIS-P248Q), HPLC; assay type: cell-based; details: UROIIIS^P248Q HEK cells; 60 µM
Protocol: as §1, with “used.” for “used. Serum was collected after the administration at 1, 2, 4, 6 (7), 12, and 24 h. At 48 (36) h, the mice were sacrificed. Triplicates were collected for each data point.”
as §2, §3

[5] = system: mouse model of the disease (UROIIIS^P248Q/P248Q); assay: Oral gavage for 30 days in mouse model of CEP; assay type: in vivo; details: UROIIIS^P248Q/P248Q mice; for reduction in total UROI levels in serum: oral gavage, after 30 days, equivalent dose
Protocol: The compound ciclopirox (CPX, 6-cyclohexyl-1-hydroxy-4-methyl-2(1H)-pyridinone) was purchased from Santa Cruz Biotechnology (sc-204688), and phosphorylated ciclopirox (CPXpom, O-phosphoryl-methylen-6-cyclohexyl-1-hydroxy-4-metyl-2(1H)-Pyridinone) was synthetized by Charnwood Molecular Ltd. PD of CPX was studied in HEK CRISPR Cas UROIIIS-C73R and UROIIIS-P248Q cell lines. Briefly, 60 µM dose of CPX and phosphorylated CPX was administrated for 30 min and 1, 2, and 4 h of exposition. Then, the cells were counted and harvested. Samples were treated by the same protocol for the porphyrin extraction. Mouse experiments. For the PK experiments and for each bolus administration method 10 WT ICR (CD-1®) outbred mice (Envigo) were used. Serum was collected after the administration at 1, 2, 4, 6 (7), 12, and 24 h. At 48 (36) h, the mice were sacrificed. Triplicates were collected for each data point. Urine samples were collected at the same interval. In the PD experiments, the concentration of porphyrins was measured from circulating blood. Blood samples were extracted from the submandibular vein every week, and mice were weighed before each extraction. Mice were treated with oral CPX by gavage to evaluate CPX dose efficiency. […] All work performed with animals was approved by the competent authority (Diputación Foral de Bizkaia) following European and Spanish directives. The CIC bioGUNE Animal Facility is accredited by AAALAC Intl.
as §2, §3

murine models of CEP = system: murine models of CEP; set-up: method as in PMID 30232228; details: cited from earlier work
[6] = set-up: method as in PMID 2989308; details: weak acidic N-hydroxyl group of the 1-hydroxy-2(1H)-pyridones; cited from earlier work
[7] = set-up: method as in PMID 7197542; details: oral; 1 mg/kg rats, 10-15 mg/kg dogs; cited from earlier work
[8] = set-up: method as in PMID 7028047; details: rats; 4 weeks; doses up to 300 mg/kg; cited from earlier work
[9] = system: cellular models of the disease, obtained from HEK cells by CRISPR/Cas9 editing; assay: Equivalent cellular studies in cellular models of CEP (data not shown); assay type: cell-based
Source text: We first tested the derivatives on different cellular models of the disease, obtained from HEK cells by CRISPR/Cas9 editing. The selected mutations (UROIIIS^C73R and UROIIIS^P248Q) result in destabilized proteins and severe phenotypes. […] Thus, the reported activity for CPXpom is attributed to a proper hydrolysis of the compound into the active species.

For `Cc1cc(C2CCCCC2)n(O)c(=O)c1` [CPX, 6-cyclohexyl-1-hydroxy-4-methyl-2(1H)-pyridinone], the CPXFREE ([1]; Table S3, serum, IV, dose 10 mg/kg, CPXfree = CPXtot − CPXglu) was less than 21.4%, the “macroscopic inflammation of the gut” value [2] was “Macroscopic inflammation can be observed” and the GI toxicity ([2]; mouse, in vivo, po) was “results in GI toxicity”. The “levels of the toxic by-product URO I” value [3] was “significantly reduced”, the “levels of the toxic by-product URO I” value [4] was “significantly reduced” and the “reduction in total UROI levels in serum” value [5] was 40%. The splenomegaly (murine models of CEP; indirect measure of reduction in circulating porphyrins) was “reduced splenomegaly”, the “levels of the toxic porphyrins, particularly URO I and COPRO I” value (murine models of CEP; liver, red blood cells, and urine) was “significant decrease” and the pK [6] was 7.

With `Cc1cc(C2CCCCC2)n(OCOP(=O)(O)O)c(=O)c1` [CPXpom, O-phosphoryl-methylen-6-cyclohexyl-1-hydroxy-4-metyl-2(1H)-Pyridinone] the “circulating concentration of CPXpom (NMR spectrum of serum)” value ([1]; after CPXpom administration) was “below the detection limit”, the GI toxicity ([2]; WT mice, oral (gavage)) was “does not result in GI toxicity” and the “macroscopic inflammation of the gut” value [2] was “no macroscopic inflammation”. The “levels of the toxic by-product URO I” value [3] was “significantly reduced”, the “levels of the toxic by-product URO I” value [4] was “significantly reduced” and the “reduction in total UROI levels in serum” value [5] was 5%. The GI toxicity ([5]; orally by gavage for 30 days) was “no GI toxicity was observed”.

For `Cc1cc(C2CCCCC2)n(O)c(=O)c1` [ciclopirox-olamine], the “elimination in urine (time)” value [7] is listed as 3 to 6 h and the gastric findings [8] is listed as “gastric irritation and chronic gastritis”.

In the case of `NC(Cn1ccc(=O)c(O)c1)C(=O)O` (stereo not shown) [mimosine], the “activity in cellular models of CEP” value [9] is reported as “no activity”.
